# Experimental data from patent US9862761B2, “Composition and method for preventing or treating a tauopathy” (The Board of Trustees of the University of Illinois, priority 2009, dated 2018).
# Read-outs that look alike come from different tables or passages of the source. Square brackets hold non-standard residues; d marks the D form. Ends that are not written are not given here. pS = N[C@@H](COP(=O)(O)O)C(=O)O
# How the values were obtained:
# [1] = system: fast axonal transport (FAT) in isolated squid axoplasm; assay: Squid axoplasm motility assays (vesicle motility); type: cell-based, Loligo pealii; conditions: for effect on FAT (axonal transport): perfused alone into squid axoplasm (tau 2 μM; ING-135 100 nM); for effect on retrograde FAT rates / effect on anterograde FAT rates: perfused into isolated squid axoplasm; for effect on anterograde FAT rates: 2 μM; for prevention of 2-18 peptide-induced anterograde FAT inhibition: co-perfused with 2-18 peptide; for prevention of 2-18 peptide-induced anterograde FAT inhibition / prevention of 6D tau-mediated anterograde FAT inhibition: I-2 50 nM; for prevention of 6D tau-mediated anterograde FAT inhibition: co-perfused with 6D tau, okadaic acid 200 nM
# [2] = Tau polymerization with arachidonic acid, electron microscopy; type: physicochemical; conditions: 4 μM tau, 75 μM arachidonic acid
# Procedure: Tau polymerization was induced using AA according to known methods (King, et al. (1999) Biochemistry 38:14851-14859), except that KCl was substituted for NaCl in the polymerization buffer. […] Briefly, tau protein (4 μM) was incubated at room temperature in reaction buffer (50 mM HEPES, pH 7.6, 50 mM KCl, 5 mM DTT) in the presence of 75 μM AA (in ethanol vehicle). Samples of soluble tau were prepared for perfusion in the same manner, except that arachidonic acid was excluded from the polymerization buffer. Control mixtures containing AA but lacking tau were prepared in parallel. Final ethanol concentration in all samples was 3.8%.
# Polymerization reactions were allowed to proceed for 6 hours, fixed with 2% glutaraldehyde, spotted onto 300 mesh formvar/carbon-coated copper grids (Electron Microscopy Sciences, Hatfield, Pa.), and negatively stained with 2% uranyl acetate (King, et al. (1999) supra). […]
# To determine whether these domains are involved in FAT inhibition, two tau constructs were assayed, Δ2-18 and 1-421, containing deletions at the extreme amino- and carboxy-termini, respectively. […] Therefore, the formation of tau filaments under these experimental conditions was assessed by electron microscopic analysis.
# [3] = system: squid microtubules; assay: Microtubule morphology at axoplasm periphery after perfusion; type: cell-based; conditions: 2 μM perfused into axoplasm
# Description: Microtubule rigidity is increased when tau binds to the microtubule surface, and this effect is observable even at low, nonsaturating tau concentrations (Feigner, et al. (1997) J. Cell Biol. 138:1067-1075; Morfini, et al. (2007) supra). As an additional indicator of hTau40's ability to interact with squid microtubules, axoplasm was perfused with tau and the morphology of microtubules at the axoplasm periphery was examined.
# [4] = system: endogenous squid microtubules; assay: Microtubule-binding (sedimentation) assay; conditions: 5 μM tau construct, squid optic lobe cytosol
# [5] = system: kinesin-1 associated with vesicles; assay: Motor proteins on membrane vesicle fractions purified from squid axoplasms; conditions: 40 minutes incubation
# Procedure: After 40 minutes of incubation, axoplasms were transferred, along with perfusion buffer, to low protein binding 1.5 ml centrifuge tubes containing 200 μl of homogenization buffer (0.25 mM sucrose, 1 mM EDTA, 10 mM Hepes, pH 7.4, 1/100 protease inhibitor cocktail (Sigma), 1/200 phosphatase inhibitor cocktail set II (Calbiochem), 2 μM K252a (Calbiochem), 1 μM PKI (Upstate, Lake Placid, N.Y.)), and carefully homogenized by two passages through a 23-G syringe needle and five passages through a 27-G syringe needle using a 1-ml Hamilton pipette. Axoplasm homogenates were adjusted to 30% iodixanol by mixing 200 μl of axoplasm homogenates with 300 μl of solution D (50% (w/v) iodixanol, 10 mM MgCl2 in 250 mM sucrose). […] Samples were centrifuged at 250,000 g max for 1 hour at 4° C. in an RP55-S SORVALL rotor. Three hundred microliters containing floating vesicles were collected from immediately below the 5% iodixanol interface, and 60 μl of 6× loading sample buffer was added.
# To determine whether tau filaments induce the dissociation of kinesin-1 from cargo, “sister” axoplasms were obtained from individual animals and treated with monomeric or filamentous hTau40 (2 μM). […] After 40 minutes of incubation, axoplasmic vesicle fractions were isolated and kinesin-1 levels were evaluated with an antibody against KHCs. […]
# [6] = system: fast axonal transport (FAT) in isolated squid axoplasm; conditions: cited from earlier work
# [7] = target: T1, fyn kinase (Homo sapiens, UniProt P06241); assay: In vitro phosphorylation of tau by fyn kinase; type: biochemical; conditions: compared to wild-type tau; 1 μM tau
# T1 construct: purchased Millipore
# Procedure: Samples were heated to 60° C. for 5 minutes and separated on 10% acrylamide gels via SDS-PAGE. The proteins were transferred to nitrocellulose membranes, blocked in 2% non-fat dry milk Tris-buffered saline (NFDM-TBS; Tris 50 mM, NaCl 150 mM, pH 7.4). The membranes were incubated in primary antibodies (R1-1:300,000 and 9G3-1:8000) overnight at 4° C. The next day, the membranes were rinsed in TBS+0.1% TWEEN 20 and then incubated in the appropriate secondary antibody (1:5000; diluted in 2% NFDM-TBS). Immunoreactivity was visualized using ECL solution and the level of reactivity was quantified by measuring the optical density of immunoreactive bands with ImageJ software (v1.41, NIH). The average pixel intensities of the main tau bands were measured. Data are expressed as the ratio of 9G3 intensity to R1 intensity (error bars—s.e.m.).
# Phosphorylation was carried out at 32° C. for […]. Samples were diluted 1:1 in 2× Laemmli buffer at 0, 10, 20, 40, and 60 minutes to stop the reaction. Samples were stored at −20° C. until used for immunoblotting.
# Fyn kinase is a non-receptor tyrosine kinase known to phosphorylate tau at Tyr18 and phosphoTyrl8 (pTyr18) and is found in tau inclusions of AD brains (Lee, et al. (2004) supra). Phosphorylation at Tyr18 by fyn kinase prevents tau-mediated inhibition of anterograde FAT in squid axoplasm.
# [8] = target: PP2A (Homo sapiens, UniProt P67775); conditions: even at micromolar concentrations; cited from earlier work
# [9] = coperfused with hTau40 filaments (2 μM), SB203580 5 μM, CREBpp 0.5 mM, ING-135 100 nM, okadaic acid 100 nM, inhibitor-2 50 nM
# T1 sequence (P06241 whole entry): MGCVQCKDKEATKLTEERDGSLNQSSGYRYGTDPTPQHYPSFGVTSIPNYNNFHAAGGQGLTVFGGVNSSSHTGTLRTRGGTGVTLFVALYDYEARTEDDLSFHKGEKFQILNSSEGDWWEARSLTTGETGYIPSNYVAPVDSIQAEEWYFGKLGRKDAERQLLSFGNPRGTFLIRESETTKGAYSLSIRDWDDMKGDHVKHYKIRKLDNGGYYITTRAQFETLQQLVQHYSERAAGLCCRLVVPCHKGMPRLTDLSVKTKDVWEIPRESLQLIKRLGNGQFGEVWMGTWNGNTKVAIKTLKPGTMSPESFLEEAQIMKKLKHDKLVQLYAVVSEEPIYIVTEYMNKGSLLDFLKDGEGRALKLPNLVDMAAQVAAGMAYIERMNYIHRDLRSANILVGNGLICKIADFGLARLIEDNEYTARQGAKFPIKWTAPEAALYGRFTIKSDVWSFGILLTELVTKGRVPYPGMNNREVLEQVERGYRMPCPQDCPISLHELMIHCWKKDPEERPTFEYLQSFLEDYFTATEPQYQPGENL
# PP2A, sequence (P67775 whole entry, the tested form may be a part): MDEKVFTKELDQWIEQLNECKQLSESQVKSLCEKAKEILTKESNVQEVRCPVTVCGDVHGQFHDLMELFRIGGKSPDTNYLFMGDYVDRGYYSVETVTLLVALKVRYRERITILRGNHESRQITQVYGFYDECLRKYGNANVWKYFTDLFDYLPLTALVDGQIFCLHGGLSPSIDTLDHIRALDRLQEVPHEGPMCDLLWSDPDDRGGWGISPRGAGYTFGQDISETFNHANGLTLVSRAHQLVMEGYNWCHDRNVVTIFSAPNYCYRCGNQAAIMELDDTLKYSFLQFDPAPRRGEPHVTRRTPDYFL
compound,measurement,setting,value
"monomeric hTau40: full-length tau, longest isoform in adult human brain, 441 amino acids, soluble monomer",effect on FAT (axonal transport),[1]; listed as full-length wild-type tau monomers,had no effect
same,effect on FAT (axonal transport),[1]; listed as soluble tau,does not affect
same,effect on retrograde FAT rates,[1],no effect
same,effect on anterograde FAT rates,[1],no effect
same,filament formation under axoplasm perfusion buffer conditions,[2],form morphologically indistinguishable filaments
same,morphology of peripheral microtubules,[3],"caused peripheral microtubules to acquire a straight, rigid appearance"
same,sedimentation with taxol-assembled squid microtubules (supernatant vs pellet),[4],depleted from the supernatant fraction and found in association with the microtubule-enriched pellet fraction
"Cn1cc(C2=C(c3coc4ccccc34)C(=O)NC2=O)c2cc(Br)ccc21 [ING-135, reference compound]",prevention of 2-18 peptide-induced anterograde FAT inhibition,[1]; ING-135 100 nM,completely prevented
same,prevention of 6D tau-mediated anterograde FAT inhibition,[1]; ING-135 100 nM,completely blocked
same,block of tau filament-induced inhibition of anterograde FAT,[1]; [9],blocked
same,effect on FAT (axonal transport),[1],had no effect
hTau40 filaments: recombinant hTau40 polymerized into filaments with arachidonic acid,effect on FAT (axonal transport),[1],inhibition
same,effect on retrograde FAT rates,[1],remained unaffected
same,effect on anterograde FAT rates,[1],inhibited
same,effect on anterograde FAT rates,[1]; listed as hTau40 F,significantly reduced
same,effect on anterograde FAT rates,[1]; listed as tau filaments,inhibit
same,levels of dynein intermediate chain on vesicles,[5],unaffected
same,morphology of peripheral microtubules,[3],did not produce changes in microtubule morphology
"C=C1[C@@H](O)[C@@H]2O[C@]3(CC[C@H](/C=C/[C@@H](C)[C@@H]4CC(C)=C[C@@]5(O[C@H](C[C@@](C)(O)C(=O)O)CC[C@H]5O)O4)O3)CC[C@H]2O[C@@H]1[C@@H](O)C[C@H](C)[C@H]1O[C@@]2(CCCCO2)CC[C@H]1C [okadaic acid, reference compound]",prevention of 6D tau-mediated anterograde FAT inhibition,[1]; ING-135 100 nM,abolished
same,prevention of 6P tau-mediated anterograde FAT inhibition,[1]; co-perfused with 6P tau,The same effect was noted
same,block of tau filament-induced inhibition of anterograde FAT,[1]; [9],blocked
same,"effect on FAT, perfused alone","[6]; okadaic acid alone, concentrations up to 1 μM",have no effect
K23: tau construct lacking both alternatively spliced N-terminal exons and all four MTBRs [reference compound],sedimentation with taxol-assembled squid microtubules (supernatant vs pellet),[4],remained in the supernatant fraction
"KRREILSRRPpSYR (KRREILSRRP[pS]YR) [CREBpp, reference compound]",block of effects of 1-421 tau filaments on FAT,[1]; coperfused with 1-421 tau filaments,also blocked
same,block of tau filament-induced inhibition of anterograde FAT,[1]; [9],blocked
same,"effect on FAT, perfused alone",[6]; CREBpp alone in squid axoplasm,has no effect
"C[S+]([O-])c1ccc(-c2nc(-c3ccncc3)c(-c3ccc(F)cc3)[nH]2)cc1 (centres unmarked) [SB203580, reference compound]",block of tau filament-induced inhibition of anterograde FAT,[1],did not block
"active GSK-3β: recombinant, active GSK-3β from Sigma [reference compound]",levels of dynein intermediate chain on vesicles,[5],unaffected
"AT8 tau: tau with Ser199, Ser202, Thr205 mutated to glutamic acid, AT8 pseudophosphorylated mutant",effect on retrograde FAT rates,[1],unaffected
same,effect on anterograde FAT rates,[1],significantly reduced
same,maximal level of phosphorylation at Tyr18 by fyn kinase,[7],lower
same,rate of phosphorylation at Tyr18 by fyn kinase,[7],slower
AEPRQEFEVMEDHAGTY [2-18 peptide],effect on anterograde FAT rates,[1],induced a significant inhibition
same,effect on anterograde FAT rates,[1]; listed as PAD,inhibit
inhibitor-2 [reference compound],prevention of 2-18 peptide-induced anterograde FAT inhibition,[1]; ING-135 100 nM,completely prevented
same,prevention of 6D tau-mediated anterograde FAT inhibition,[1]; ING-135 100 nM,complete prevention
same,block of tau filament-induced inhibition of anterograde FAT,[1]; [9],prevented FAT inhibition
same,effect on PP2A,[8],has no effect
